Test results reported in ChEMBL document CHEMBL4819028, “Structures and Biosynthetic Pathway of Coprisamides C and D, 2-Alkenylcinnamic Acid-Containing Peptides from the Gut Bacterium of the Carrion Beetle Silpha perforata” (J Nat Prod, 2021).
In brackets after ≈: the same amount, converted by molar mass. Activity calls are given as the source filed them. The calls are words filed in the database; no cut-off is given here.

What was measured:
[1] = target: NAD(P)H dehydrogenase [quinone] 1 (Mus musculus) (UniProt Q64669); experiment: Induction of quinone reductase activity in mouse Hepa1c1c7 cells at 10 uM incubated for 24 hrs by MTT based assay; assay type: cell-based; conditions: filed as activator
[2] = tested on: Mycobacterium tuberculosis; experiment: Antitubercular activity against Mycobacterium tuberculosis mc2 6230 assessed as inhibition of bacterial growth incubated for 5 days by REMA; assay type: functional; conditions: mc2 6230, 120 h, time 5 day
[3] = Cytotoxicity against mouse Hepa1c1c7 cells at higher concentration; assay type: cell-based
Staphylococcus aureus = experiment: Antibacterial activity against Staphylococcus aureus; assay type: functional, organism-based
Enterococcus faecalis = experiment: Antibacterial activity against Enterococcus faecalis; assay type: functional, organism-based
Enterococcus faecium = experiment: Antibacterial activity against Enterococcus faecium; assay type: functional, organism-based
Klebsiella pneumoniae = experiment: Antibacterial activity against Klebsiella pneumoniae; assay type: functional, organism-based
Salmonella enterica = experiment: Antibacterial activity against Salmonella enterica; assay type: functional, organism-based
Escherichia coli = experiment: Antibacterial activity against Escherichia coli; assay type: functional, organism-based
Aspergillus fumigatus = experiment: […] activity against Aspergillus fumigatus; assay type: functional, organism-based
Trichophyton rubrum = experiment: […] activity against Trichophyton rubrum; assay type: functional, organism-based
[4] = tested on: Trichophyton mentagrophytes; experiment: […] activity against Trichophyton mentagrophytes; assay type: functional, organism-based
Candida albicans = experiment: […] activity against Candida albicans; assay type: functional, organism-based

NAD(P)H dehydrogenase [quinone] 1 (Mus musculus), sequence (Q64669 whole entry): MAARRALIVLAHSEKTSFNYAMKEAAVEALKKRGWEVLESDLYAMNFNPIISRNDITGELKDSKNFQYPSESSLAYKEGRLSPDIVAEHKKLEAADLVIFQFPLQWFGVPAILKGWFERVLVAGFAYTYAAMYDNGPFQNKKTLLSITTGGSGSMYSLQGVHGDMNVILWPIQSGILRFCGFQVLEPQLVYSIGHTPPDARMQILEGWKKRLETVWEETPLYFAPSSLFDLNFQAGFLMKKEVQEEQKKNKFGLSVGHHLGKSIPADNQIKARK

Structure (SMILES): C/C=C/C=C/C=C/c1ccccc1/C=C/C(=O)NC(C)C(=O)N[C@@H]1COC(=O)[C@H]([C@H](C)C(=O)O)NC(=O)[C@H](CNC(=O)C(N)C(C)C)NC(=O)[C@H](C(C)C)NC(=O)[C@@H](CC(C)C)NC1=O (some centres undefined)
- fold change (FC) [1]: 2.1

Structure (SMILES): CC[C@@H](CO)NCCN[C@@H](CC)CO [ETHAMBUTOL]
- MIC50 [2]: 0.83 mg/L (≈ 4.06 µM)

Structure (SMILES): CC(C)C/C=C/C=C/c1ccccc1/C=C/C(=O)N[C@H](C)C(=O)N[C@@H]1COC(=O)[C@H]([C@H](C)C(=O)O)NC(=O)[C@H](CNC(=O)[C@@H](N)C(C)C)NC(=O)[C@H](C(C)C)NC(=O)[C@@H](CC(C)C)NC1=O
- fold change (FC) [1]: 2.3
- Activity [3]: Toxic
- Activity (Staphylococcus aureus): inactive
- Activity (Enterococcus faecalis): inactive
- Activity (Enterococcus faecium): inactive
- Activity (Klebsiella pneumoniae): inactive
- Activity (Salmonella enterica): inactive
- Activity (Escherichia coli): inactive
- Activity (Aspergillus fumigatus): inactive
- Activity (Trichophyton rubrum): inactive
- Activity [4]: inactive
- Activity (Candida albicans): inactive

Structure (SMILES): NNC(=O)c1ccncc1 [ISONIAZID]
- MIC50 [2]: 0.03 mg/L (≈ 0.219 µM)

Structure (SMILES): CC(C)/C=C/C/C=C\c1ccccc1/C=C/C(=O)N[C@H](C)C(=O)N[C@@H]1COC(=O)[C@H]([C@H](C)C(=O)O)NC(=O)[C@H](CNC(=O)[C@@H](N)C(C)C)NC(=O)[C@H](C(C)C)NC(=O)[C@@H](CC(C)C)NC1=O
- MIC50 [2]: 82.8 mg/L (≈ 89.7 µM)
- fold change (FC) [1]: 2.4
- Activity [3]: Toxic
- Activity (Staphylococcus aureus): inactive
- Activity (Enterococcus faecalis): inactive
- Activity (Enterococcus faecium): inactive
- Activity (Klebsiella pneumoniae): inactive
- Activity (Salmonella enterica): inactive
- Activity (Escherichia coli): inactive
- Activity (Aspergillus fumigatus): inactive
- Activity (Trichophyton rubrum): inactive
- Activity [4]: inactive
- Activity (Candida albicans): inactive

Structure (SMILES): C/C=C/C=C/C/C=C\c1ccccc1/C=C/C(=O)NC(C)C(=O)N[C@@H]1COC(=O)[C@H]([C@H](C)C(=O)O)NC(=O)[C@H](CNC(=O)C(N)C(C)C)NC(=O)[C@H](C(C)C)NC(=O)[C@@H](CC(C)C)NC1=O (some centres undefined)
- fold change (FC) [1]: 2.6
